Laboratory results taken from publication PMC6235002, “Born to sense: biophysical analyses of the oxygen sensing prolyl hydroxylase from the simplest animal Trichoplax adhaerens” (Hypoxia, 2018).
Entries after “also recorded” stand apart in the source; their conditions may differ. Like-named read-outs stand apart in the source and are kept apart here.

B1: TaPHD^64-300 (Trichoplax adhaerens) (protein)
chain: MDERRPKIGCDKTGLALEKTWQLQKNERLSNMVVNQLNTNGFCIINNFLGSSCSTEVLQQVLNLYQSGVFSNGQLARNVSVNRIRGDKIAWIGGDERGCEAIKYLSSCVDSLISRCNGRLGNYMITGRTKCMVACYPGSGLGYIRHIDNPNRDGRCVTVLYYLNPNWNSQDCGGQLWLYPNNENKVVKIDPIFDRLLLFWSDRRNPHEVKPAYAMRYAITLWYFDEKERALSSQNGT

Tests used:
TaPHD^64-300 [1] = target: T1, TaPHD^64-300 (Trichoplax adhaerens, UniProt I6QVT6); experiment: MALDI-TOF-MS peptide hydroxylation steady-state kinetics, TaPHD^64-300; type: biochemical; settings: for Km / kcat (peptide substrate): peptide varied, 3.5–7.0 µM enzyme, 50 µM (NH4)2Fe(II)(SO4)2, 4 mM ascorbate, 300 µM 2OG; for Km: 50 mM Tris pH 7.5, Michaelis-Menten fit, ± SD, n=3, read-out: Km (peptide substrate); for kcat (peptide substrate): 50 mM Tris pH 7.5, ± SD, n=3
Experimental: (§1) Notes: (A) Sequence alignment of TaHIFa, HsHIFa, and substrates of PHD-like enzymes in Dictyostelium discoideum (DdSkp1) and Pseudomonas putida (PpEF-Tu). […] Peptide hydroxylation was analyzed by MALDI-MS; the apparent non-enzymatic Met oxidation was subtracted. Data were fitted with the Michaelis-Menten equation using GraphPad Prism® (errors are indicated as standard deviations, n=3).

HsPHD2^181-426 [2] = target: T2, HsPHD2^181-426 (Homo sapiens, UniProt Q9GZT9); experiment: MALDI-TOF-MS peptide hydroxylation steady-state kinetics, HsPHD2^181-426; type: biochemical; settings: peptide varied, 3.5–7.0 µM enzyme, 50 µM (NH4)2Fe(II)(SO4)2, 4 mM ascorbate, 300 µM 2OG; for Km: 50 mM Tris pH 7.5, Michaelis-Menten fit, ± SD, n=3, read-out: Km (peptide substrate); for kcat (peptide substrate): 50 mM Tris pH 7.5, ± SD, n=3
T2 construct: compared to the truncated human PHD isoform 2 (HsPHD2^181-426)
T2 sequence (Q9GZT9 181-426): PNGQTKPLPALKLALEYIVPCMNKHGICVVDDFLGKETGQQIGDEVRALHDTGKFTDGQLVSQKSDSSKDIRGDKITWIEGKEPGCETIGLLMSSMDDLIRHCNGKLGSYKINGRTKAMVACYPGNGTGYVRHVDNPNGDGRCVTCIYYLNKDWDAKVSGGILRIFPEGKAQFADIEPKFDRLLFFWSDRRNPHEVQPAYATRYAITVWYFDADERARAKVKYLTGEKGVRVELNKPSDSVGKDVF
Experimental: as §1

TaPHD^64-300 [3] = target: T1, TaPHD^64-300; experiment: 1D CLIP HSQC NMR binding studies with [^13C]-prolyl-labelled reporter ODD peptides; settings: 1:1 enzyme:ODD, 50 µM [^13C]-proline-labelled peptide, 50 µM TaPHD, Zn(II), 50 µM 2OG, 50 mM Tris-D11 pH 7.5, 10% D2O/90% H2O, n=3
Experimental: as §1
To more directly investigate the extent to which TaPHD^64-300 can bind HsHIF1α NODD and CODD, we performed 1D CLIP HSQC NMR binding studies with HsHIF1α CODD and HsHIF1α NODD peptides labeled with [^13C] at the target prolyl residues which undergo hydroxylation during catalysis (Figure 2C).

HsPHD2^181-426 [4] = target: T2, HsPHD2^181-426; parameters: method as in PMID 25120187; settings: previous studies, read-out: Km (peptide substrate), previous studies; cited from earlier work
HsPHD2 P317R = HsPHD2 P317R variant; Figure S4, reference not given; cited from earlier work
Text: (§2) In both the TaPHD.TaODD and HsPHD2.CODD[34] structures, a salt-bridge between an arginine residue in the C-terminal α4-helix and an aspartate residue in the C-terminus of the respective peptide (R292TaPHD/D494TaODD, R396HsPHD2/D571HsHIF1α CODD) is formed (Figure S4). However, this salt-bridge is not present in the HsPHD2.NODD complex structure, where the HsHIF1α NODD peptide is positioned further from the C-terminal helix and interacts with the C-terminal region of HsPHD2 via hydrophobic contacts. Studies with the TaODD and HsPHD2 variants, including with HsPHD2 P317RHsPHD2 and R396THsPHD2, wh ...

TaPHD^64-300 [5] = target: T1, TaPHD^64-300; settings: TaPHD with natural substrate (500 µM); 20 µM enzyme, 125 µM Fe(II), 1 mM ascorbate, 400 µM 2OG, 50 mM Tris-D11 pH 7.5; ^1H NMR
TaPHD^64-300 [6] = target: T1, TaPHD^64-300; experiment: Steady-state O2-dependence of TaPHD (MALDI-TOF-MS); type: biochemical; settings: TaPHD^64-300 with TaODD 25mer
Experimental: as §1
In order for the PHDs to act as hypoxia sensors in cells, their activity must be limited by oxygen availability. […] In order to study the O2 dependence of the TaPHD-catalyzed reaction, steady-state kinetics, using reported experimental conditions for HsPHD2;[29] were conducted. TaPHD^64-300 was reacted with its peptidic substrate in sealed glass-vials under varied oxygen concentrations,[29] the initial rates of TaODD 25mer hydroxylation were determined by MALDI–TOF-MS (Figure 2F and G).

HsPHD2 = settings: read-out: Km (O2); cited from earlier work
TaPHD^64-300 [7] = target: T1, TaPHD^64-300; settings: relative to TaODD 25mer and CODD 19mer; cited from earlier work
Text: The HIF system in T. adhaerens is apparently markedly simpler than in humans because it contains only one PHD (TaPHD), and one HIFα isoform with a single ODD (TaODD, Figure 1A).[16] […] To further investigate the substrate preferences of TaPHD^64–300, its affini ...

HsPHD2 R396T = HsPHD2 R396T variant; Figure S4, reference not given; cited from earlier work
Text: as §2

[8] = substrate: O=C(O)CCC(=O)C(=O)O; experiment: MALDI-TOF-MS peptide hydroxylation steady-state kinetics, TaPHD^64-300; type: biochemical, Trichoplax adhaerens; settings: other: TaPHD^64-300, 2OG varied, 100 µM peptide, 50 µM (NH4)2Fe(II)(SO4)2, 4 mM ascorbate, 50 mM Tris pH 7.5, ± SD, n=3, 37.0 °C

| Molecule | hydroxylation by TaPHD (in words) (TaPHD^64-300 [1]) | Km (TaPHD^64-300 [1]) [µM] | kcat (peptide substrate) (TaPHD^64-300 [1]) [s⁻¹] | Km (HsPHD2^181-426 [2]) [µM] | kcat (peptide substrate) (HsPHD2^181-426 [2]) [s⁻¹] | other results |
| --- | --- | --- | --- | --- | --- | --- |
| DLDLEMLAPYIPMDDDFQL-NH2 [HsHIF1α CODD 19mer, 19mer peptide of the human HIF1α C-terminal ODD] | efficiently catalyzes the hydroxylation | 15.1 ± 2.2 | 0.012 ± 0.001 | 10.8 ± 1.9 | 0.027 ± 0.001 | binding to TaPHD (in words) (TaPHD^64-300 [3]): higher binding affinity of TaPHD for HsHIF1α CODD over NODD; also recorded: apparently completely bound; Km (HsPHD2^181-426 [4]): 9 ± 3 µM; ODD selectivity of HsPHD2 P317R (in words) (HsPHD2 P317R): selective for CODD |
| O=C(O)CCC(=O)C(=O)O [2OG, 2-oxoglutarate] |  |  |  |  |  | 2OG decarboxylation in presence of substrate (TaPHD^64-300 [5]): strongly increased in presence of substrate |
| O=O [O2, oxygen] |  |  |  |  |  | Km (TaPHD^64-300 [6]; 4 µM enzyme, 100 µM TaODD, 50 µM Fe(II), 300 µM 2OG, 4 mM ascorbate, 50 mM Tris pH 7.5, 37°C, varied % O2, n=3): > 400 µM; O2 saturation (in words) (TaPHD^64-300 [6]; at 60% O2 level, 37°C, pH 7.5): No saturation of O2 was reached; Km (HsPHD2): > 400 µM |
| PINEKEDYDDLAPFVPPPSFDNRLY-NH2 [TaODD 25mer, 25mer peptide of the single ODD of T. adhaerens HIFα, natural substrate of TaPHD] | efficiently catalyzes the hydroxylation | 11.5 ± 1.8 | 0.026 ± 0.001 | 40.5 ± 4.9 | 0.035 ± 0.002 |  |
| DALTLLAPAAGDTIISLDF-NH2 [HsHIF1α NODD 19mer, 19mer peptide of the human HIF1α N-terminal ODD] | not turned over above background level |  |  |  |  | hydroxylation by TaPHD, earlier report (in words) (TaPHD^64-300 [7]): hydroxylated less efficiently; ODD selectivity of HsPHD2 R396T (in words) (HsPHD2 R396T): NODD |
| B1 |  |  |  |  |  | Km [8]: 1.9 ± 0.3 µM |
